# Settings: a range is the spread between reports
row,Structure (SMILES),melting point [°C]
1,CCCCP(CCCC)CCCC,-65 to -60
2,BrCCCCBr,-20 to -16.5
3,O=Cc1ccccc1C(=O)O,97 to 99
4,O=[N+]([O-])c1cccc2ccccc12,57 to 62
5,Brc1cc(Br)cc(Br)c1,122 to 124
6,CCCCCCCCCCCCCCC(=O)O,52 to 53
7,CC12CCC(=O)C=C1CCC1C2CCC2(C)C1CCC2(C)O (stereo not drawn),163 to 164
8,CCOP(=O)(OCC)OCC,-56.4 to -56
9,O=[N+]([O-])c1cc([N+](=O)[O-])c2ccccc2c1,147 to 148
10,CCOC(=O)c1csc(C)n1,55 to 57
11,Nc1ccc(-c2ccccc2)cc1,53 to 54
12,CCC,-188
13,COC(=O)c1ccc(OC)c(OC)c1,59 to 60.8
14,O=[N+]([O-])C(Br)(CO)CO,127 to 132
15,CCCc1ccc(C(=O)O)cc1,142 to 143
16,ClCBr,-88 to -87.9
17,Cc1c(N)cccc1[N+](=O)[O-],90 to 92
18,C=C(C)CC,-138 to -137

row,Structure (SMILES),melting point [°C]
1,ICCCCI,5.8 to 6
2,CCCCC(N)=O,103 to 106
3,Oc1ccc(Cl)c(O)c1,106 to 107
4,N#CNC(=N)N,208 to 211
5,O=C(O)C(F)(F)C(F)(F)C(=O)O,115 to 119
6,CC1OC(C)OC(C)O1 (stereo not drawn),12 to 12.6
7,CN1C(=C(O)Nc2ccccn2)C(=O)c2ccccc2S1(=O)=O,198 to 199
8,O=C(O)c1c(F)cccc1Cl,158 to 160
9,CCCCCCCCCCCCCCCCCC(=O)OC[C@@H](O)[C@H]1OC[C@H](O)[C@H]1O,55 to 57
10,O=C(Cl)c1ccco1,-2 to -1
11,Nc1ccc(Br)cc1Br,78 to 80
12,ClC=C(Cl)Cl,-85 to -84.7
13,CCCCCCCCCCCCN(C)C,-20 to -15
14,Cc1ccc(N)c(N)c1,88 to 89.5
15,Oc1ccc(Cl)cc1Cl,42 to 45
16,CCOC(=O)c1cccnc1,8.5 to 9
17,Nc1ccccc1,-6.3 to -6
18,CN(C)C(=O)Nc1cccc(C(F)(F)F)c1,164

# Other lines, results leading:
row,melting point [°C],Structure (SMILES)
1,229 to 230,CCn1cc(C(=O)O)c(=O)c2ccc(C)nc21
2,160 to 161,NC(=O)c1ccccc1Br
3,17.8 to 18.2,OCC(O)CO
4,-1 to 2,Cc1cc(C)c(Br)c(C)c1
5,46 to 47.5,Cc1ccc(C(=O)c2ccccc2)cc1C
6,28 to 29,OCCNCCO
7,42 to 47,CCOC(=O)c1cccc([N+](=O)[O-])c1
8,-113,CCC(C)(C)CC(C)C
9,89 to 92,CC(C)(O)CCC(C)(C)O
10,-106,CC(C)CCC(C)(C)C
11,237 to 242,O=C(O)c1ccc([N+](=O)[O-])cc1
12,-80.8 to -80.7,C#C
13,-113,CC(C)=C(C)C(C)C
14,93 to 95,Nc1cccc(CO)c1
15,79 to 83,O=C(Oc1ccccc1)Oc1ccccc1
16,52 to 55,CCCCCCCCP(=O)(CCCCCCCC)CCCCCCCC

row,melting point [°C],Structure (SMILES)
1,128 to 130,O=C(O)c1cccs1
2,78 to 80,OCC(O)COc1ccc(Cl)cc1 (stereo not drawn)
3,-34 to -29,Nc1ccccc1C(F)(F)F
4,-97 to -95,ClCCl
5,88 to 90.5,CC(=O)NO
6,52 to 54.8,OC1CCc2ccccc21 (stereo not drawn)
7,230 to 232,O=C(O)CCCCC1SCC2NC(=O)NC21 (stereo not drawn)
8,224 to 226,N#Cc1ccc(C#N)cc1
9,53 to 56.5,O=C(Cl)C(c1ccccc1)c1ccccc1
10,31.5 to 34,O=Cc1ccc(CO)o1
11,72 to 73,Cc1cc(C)c(O)c(C)c1
12,-98 to -94.2,FC(F)(F)CC(F)(F)F
13,20 to 22,O=Cc1ccccc1Br
14,99 to 101,Cc1cccc2c1ccc1cc(C(C)C)ccc12
15,-99 to -96,CCCC=O
16,155 to 157,COC(=O)c1c(Cl)c(Cl)c(C(=O)OC)c(Cl)c1Cl
